Results: PMC12655351, “Synthesis and Anticancer Activity Evaluation of New 5-((5-Nitrofuran-2-yl)allylidene)-2-thioxo-4-thiazolidinones” (Pharmaceuticals, 2025)
“And” between values parts separate entries of the source, which are not always exact repeats. Equal values may be shown once. Read-outs that look alike come from different tables or passages of the source.

What was measured:
Leukemia = Leukemia subpanel
HOP-62 = experiment: NCI-60 SRB screen; conditions: for GI50 / TGI: HOP-62, 48 h
MCF7 = experiment: NCI-60 SRB screen; conditions: MCF7, 48 h
A549/ATCC = experiment: NCI-60 SRB screen
HT29 = conditions: HT29, 48 h
SR [1] = conditions: 48 h
HCT-116 = conditions: HCT-116, 48 h
OVCAR-3 [2] = conditions: for GI50 / TGI: OVCAR-3, 48 h
A498 [3] = experiment: cells; conditions: Homo sapiens, A498, 48 h
SR [4] = experiment: cells; conditions: Homo sapiens, 48 h
EKVX = experiment: NCI-60 SRB screen; conditions: 48 h; for CC50: read-out: LC50, EKVX, 48 h
MDA-MB-468 = experiment: NCI-60 SRB screen; conditions: MDA-MB-468, 48 h
MOLT-4 = conditions: MOLT-4, 48 h
IGROV1 = experiment: NCI-60 SRB screen
CNS cancer [5] = experiment: cells; conditions: Homo sapiens; for GI50: read-out: MG_MID GI50; for CC50: read-out: MG_MID LC50
786-0 = experiment: cells; conditions: Homo sapiens, 786-0, 48 h
UACC-257 = experiment: cells; conditions: Homo sapiens, UACC-257, 48 h; for CC50: read-out: LC50, UACC-257, 48 h
K-562 = experiment: cells; conditions: Homo sapiens, K562, 48 h; for GI50: K-562, 48 h; for CC50: read-out: LC50
SN12C [6] = experiment: cells; conditions: Homo sapiens, 48 h
NCI-H23 = experiment: cells; conditions: Homo sapiens, NCI-H23, 48 h; for CC50: read-out: LC50, NCI-H23, 48 h
[7] = test system: panel of 60 cancer cell lines; conditions: for Positive cytostatic effect (ratio of cell lines with GP from 0 to 50 to total number) / Mean growth: 10 μM, 48 h; for Mean growth: one dose; for MG_MID TGI: full panel (last line of Table S2)
Melanoma = Melanoma subpanel
[8] = test system: panel of 60 cancer cell lines; experiment: cells; conditions: Homo sapiens, read-out: MG_MID GI50
Renal Cancer = experiment: cells; conditions: Homo sapiens; for GI50: read-out: MG_MID GI50; for CC50: read-out: MG_MID LC50
OVCAR-3 [9] = experiment: cells; conditions: Homo sapiens, OVCAR-3, 48 h
HCT-15 = experiment: NCI-60 SRB screen; conditions: HCT-15, 48 h
CNS cancer [10] = conditions: CNS cancer subpanel
KM12 = experiment: NCI-60 SRB screen; conditions: KM12, 48 h
SK-MEL-28 = experiment: cells; conditions: Homo sapiens, SK-MEL-28, 48 h
Breast cancer = Breast cancer subpanel
TK-10 = conditions: for growth GP: TK-10, 10 μM; for growth GP / CC50: 48 h; for CC50: human
SW-620 = experiment: NCI-60 SRB screen; conditions: SW-620, 48 h
SF-295 = experiment: NCI-60 SRB screen; conditions: SF-295, 48 h; for CC50: read-out: LC50, SF-295, 48 h
Prostate Cancer = experiment: cells; conditions: Homo sapiens, read-out: MG_MID GI50
NCI/ADR-RES = experiment: cells; conditions: Homo sapiens, 48 h
SN12C [11] = conditions: 48 h
A498 [12] = conditions: A498, 48 h
LOX IMVI = experiment: cells; conditions: Homo sapiens, 48 h; for CC50: read-out: LC50, LOX IMVI, 48 h
U251 = experiment: NCI-60 SRB screen
[13] = Homo sapiens, IGROV-1, 48 h, read-out: LC50, IGROV1, 48 h
[14] = Homo sapiens, U-251, 48 h, U251, 48 h
[15] = Homo sapiens, U-251, 48 h, read-out: LC50, U251, 48 h

O=C(O)CCCCCN1C(=O)/C(=C/C=C/c2ccc([N+](=O)[O-])o2)SC1=S [14b, 6-((Z)-5-((E)-3-(5-nitrofuran-2-yl)allylidene)-4-oxo-2-thioxothiazolidin-3-yl)hexanoic acid]
MG_MID TGI (Leukemia): 11.35 µM
GI50 (HOP-62): 1.45 µM
TGI (HOP-62): 3.05 µM and 3.01 µM
GI50 (HOP-62; Homo sapiens): 1.44 µM
GI50 (MCF7; Homo sapiens): 0.39 µM
GI50 (MCF7): 0.44 µM
TGI (MCF7): 1.82 µM and 1.99 µM
GI50 (A549/ATCC; 48 h): 2.38 µM
GI50 (A549/ATCC; Homo sapiens, A549, 48 h): 1.62 µM
GI50 (HT29): 1.13 µM
TGI (HT29): 2.71 µM and 3.39 µM
TGI (SR [1]): 0.96 µM
GI50 (HCT-116): 0.2 µM
growth GP (OVCAR-3 [2]; OVCAR-3, 10 μM, 48 h): -95.33%
GI50 (OVCAR-3 [2]): 0.96 µM
TGI (OVCAR-3 [2]): 2.35 µM and 2.22 µM
GI50 (A498 [3]): 8.13 µM
GI50 (SR [4]): 0.27 µM
GI50 (EKVX): 1.68 µM
TGI (EKVX): 3.48 µM and 3.55 µM
GI50 (EKVX; Homo sapiens): 1.74 µM
CC50 (EKVX; Homo sapiens): 6.94 µM
CC50 (MDA-MB-468; Homo sapiens, read-out: LC50, MDA-MB-468, 48 h): 5.27 µM
GI50 (MOLT-4): 0.31 µM
TGI (MOLT-4): 1.50 µM and 1.21 µM
CC50 (IGROV1; [13]): 5.01 µM
CC50 (IGROV1; read-out: LC50, IGROV1, 48 h): 2.67 µM
GI50 (CNS cancer [5]): 1.14 µM
CC50 (CNS cancer [5]): 6.09 µM
GI50 (786-0): 0.61 µM
GI50 (UACC-257): 1.6 µM
CC50 (UACC-257): 6.27 µM
GI50 (K-562): 0.2 µM
CC50 (K-562): > 100 µM
GI50 (SN12C [6]): 0.36 µM
CC50 (SN12C [6]; read-out: LC50, SN12C, 48 h): 3.89 µM
GI50 (NCI-H23): 1.53 µM
CC50 (NCI-H23): 6.29 µM
Positive cytostatic effect (ratio of cell lines with GP from 0 to 50 to total number) [7]: 4/55
Mean growth [7]: -67.89%
MG_MID TGI [7]: 3.58 µM
MG_MID TGI (Melanoma): 1.82 µM
GI50 [8]: 1.1 µM
GI50 (Renal Cancer): 1.98 µM
CC50 (Renal Cancer): 10.4 µM
GI50 (OVCAR-3 [9]): 1.12 µM
GI50 (HCT-15): 0.16 µM
TGI (HCT-15): 0.51 µM and 0.35 µM
GI50 (HCT-15; Homo sapiens): 0.19 µM
MG_MID TGI (CNS cancer [10]): 2.62 µM
GI50 (KM12; Homo sapiens): 1.42 µM
GI50 (KM12): 1.19 µM
TGI (KM12): 2.83 µM and 2.67 µM
GI50 (SK-MEL-28): 1.64 µM
CC50 (SK-MEL-28; read-out: LC50, SK-MEL-28, 48 h): 5.9 µM
MG_MID TGI (Breast cancer): 2.61 µM
growth GP (TK-10): -95.04%
GI50 (TK-10; TK-10, 48 h): 1.85 µM
TGI (TK-10; TK-10, 48 h): 3.32 µM and 3.47 µM
CC50 (TK-10): 6.33 µM
GI50 (SW-620; Homo sapiens): 0.23 µM
GI50 (SW-620): 0.24 µM
TGI (SW-620): 0.57 µM and 0.61 µM
GI50 (SF-295; Homo sapiens): 1.91 µM
CC50 (SF-295; Homo sapiens): 8.72 µM
GI50 (SF-295): 1.7 µM
TGI (SF-295): 4.08 µM and 3.36 µM
GI50 (Prostate Cancer): 1.26 µM
GI50 (NCI/ADR-RES): 0.45 µM
GI50 (SN12C [11]; SN12C): 0.26 µM
TGI (SN12C [11]; SN12C): 1.36 µM and 0.86 µM
CC50 (SN12C [11]; human): 3.24 µM
GI50 (A498 [12]): 10.2 µM
TGI (A498 [12]): 20.8 µM and 22.8 µM
GI50 (LOX IMVI): 0.2 µM
CC50 (LOX IMVI): 0.88 µM
GI50 (U251; [14]): 0.57 µM
CC50 (U251; [15]): 4.86 µM
GI50 (U251; U251, 48 h): 0.34 µM
TGI (U251; U251, 48 h): 1.92 µM and 1.22 µM

O=C(O)CCCN1C(=O)/C(=C/C=C/c2ccc([N+](=O)[O-])o2)SC1=S [13b, 4-((Z)-5-((E)-3-(5-Nitrofuran-2-yl)allylidene)-4-oxo-2-thioxothiazolidin-3-yl)butanoic acid]
MG_MID TGI (Leukemia): 28.3 µM
growth GP (HOP-62; HOP-62, 10 μM, 48 h): -94.79%
TGI (HOP-62): 2.67 µM and 1.90 µM
GI50 (MCF7; Homo sapiens): 0.35 µM
GI50 (MCF7): 0.2 µM
TGI (MCF7): 1.97 µM and 1.58 µM
GI50 (A549/ATCC; 48 h): 0.78 µM
GI50 (A549/ATCC; Homo sapiens, A549, 48 h): 1.36 µM
GI50 (HT29): 0.26 µM
GI50 (HCT-116): 0.17 µM
TGI (HCT-116): 1.15 µM and 0.64 µM
GI50 (OVCAR-3 [2]): 0.39 µM
TGI (OVCAR-3 [2]): 2.04 µM and 1.36 µM
GI50 (A498 [3]): 4.13 µM
CC50 (SR [4]; read-out: LC50): > 100 µM
GI50 (EKVX): 1.05 µM
TGI (EKVX): 4.24 µM and 2.52 µM
GI50 (EKVX; Homo sapiens): 1.83 µM
CC50 (EKVX; Homo sapiens): 9.84 µM
GI50 (MDA-MB-468; Homo sapiens): 0.33 µM
GI50 (MDA-MB-468): 0.17 µM
GI50 (MOLT-4): 0.29 µM
TGI (MOLT-4): 1.86 µM and 1.16 µM
CC50 (IGROV1; [13]): 5.14 µM
GI50 (CNS cancer [5]): 0.8 µM
CC50 (CNS cancer [5]): 6.68 µM
GI50 (786-0): 0.32 µM
CC50 (UACC-257): 6.36 µM
GI50 (K-562): 0.16 µM
CC50 (K-562): > 100 µM
GI50 (SN12C [6]): 0.34 µM
CC50 (NCI-H23): 6.24 µM
Positive cytostatic effect (ratio of cell lines with GP from 0 to 50 to total number) [7]: 2/55
Mean growth [7]: -76.34%
MG_MID TGI [7]: 4.88 µM
MG_MID TGI (Melanoma): 1.46 µM
GI50 [8]: 1.61 µM
GI50 (Renal Cancer): 0.99 µM
CC50 (Renal Cancer): 7.48 µM
GI50 (OVCAR-3 [9]): 0.77 µM
GI50 (HCT-15): 0.11 µM
TGI (HCT-15): 0.52 µM and 0.33 µM
GI50 (HCT-15; Homo sapiens): 0.18 µM
MG_MID TGI (CNS cancer [10]): 2.09 µM
MG_MID TGI (Breast cancer): 2.15 µM
growth GP (TK-10): -97.38%
TGI (TK-10; TK-10, 48 h): 3.18 µM and 2.03 µM
CC50 (TK-10): 4.77 µM
GI50 (SW-620; Homo sapiens): 0.24 µM
GI50 (SW-620): 0.28 µM
TGI (SW-620): 0.54 µM and 0.83 µM
CC50 (SF-295; Homo sapiens): 6.31 µM
TGI (SF-295): 3.24 µM and 2.07 µM
GI50 (Prostate Cancer): 0.82 µM
GI50 (NCI/ADR-RES): 0.29 µM
growth GP (SN12C [11]; SN12C, 10 μM): -96.81%
GI50 (SN12C [11]; SN12C): 0.17 µM
GI50 (A498 [12]): 3.32 µM
TGI (A498 [12]): 11.5 µM and 8.16 µM
GI50 (LOX IMVI): 0.19 µM
CC50 (LOX IMVI): 0.92 µM
GI50 (U251; [14]): 0.37 µM
CC50 (U251; [15]): 4.23 µM
GI50 (U251; U251, 48 h): 0.19 µM
CC50 (U251; read-out: LC50, U251, 48 h): 3.16 µM
